In patent US20210113540A1, “TREATMENT AGENT AND PHARMACEUTICAL COMPOSITION FOR GLIOMA” (NATIONAL UNIVERSITY CORPORATION HOKKAIDO UNIVERSITY, priority 2018, published 2021):
Read-outs that look alike come from different tables or passages of the source.

Tests used:
[1] = tested on: Glioma-initiating cell E6R; experiment: Cell growth test (MTT) on GICR strain E6R; format: cell-based; conditions: Homo sapiens, 72 h
Description: GICR strain: Cell growth test was performed using E6R (Stem Cells. 2016 August; 34(8):2016-25.).
(§1) Cell culture solutions were obtained by mixing a medium prepared by adding various compounds, bFGF (Peprotech, 100-18B) and EGF (Peprotech, 100-15) to DMEM/Ham's F-12 medium (SIGMA, D8062) and a medium prepared by adding FCS (Hyclone, SH30910.03) to DMEM medium (Nacalai tesque, 08458-45) to a concentration of 10% for use.
(§2) Each compound adjusted to a predetermined concentration was dispensed into a 96-well plate (Falcon, 353072) at 80 μL/well, and E6 cells and E6R cells were seeded on the 96-well plate at 1000 cells/80 μL/well. After 3 days, 10 μL of an MTT reagent (DOJINDO, 341-01823) was added, the cells were incubated at 37° C. for 3 hours, the culture solution was removed, and 100 μL of DMSO was added. The absorbance at 570 nm was measured using Bio-Rad iMark (Bio-Rad, 168-1130JA). The growth inhibition rate at each test compound concentration was calculated by the following formula using the absorbance as an index of the viable cell count.
(§3) The growth inhibition rate at each compound concentration was determined, and the 50% growth inhibition concentration GI50 (μmol/L)] was calculated using XLfit. Growth inhibition rate (%)=(Amount of luminescence from wells supplemented with test compound)/(Amount of luminescence from wells supplemented with DMSO)×100
(§4) GIC and GICR strain: Cell growth test was performed using E6, E6R, E16, and E16R (Stem Cells. 2016 August; 34(8): 2016-25.).

[2] = tested on: Glioma-initiating cell E6; experiment: Cell proliferation test (MTT) on GIC strain E6; format: cell-based; conditions: Homo sapiens, 72 h, MTT after 3 days
Description: as §4, §1, §2, §3

[3] = tested on: Glioma-initiating cell E16; experiment: Cell proliferation test (MTT) on GIC strain E16; format: cell-based; conditions: Homo sapiens, 72 h, MTT after 3 days
Description: as §4, §1, §2, §3

[4] = tested on: Glioma-initiating cell E16R; experiment: Cell proliferation test (MTT) on GICR strain E16R; format: cell-based; conditions: Homo sapiens, 72 h, MTT after 3 days
Description: as §4, §1, §2, §3

recombinant human DHODH = biological target: T1, recombinant human DHODH (Homo sapiens, UniProt Q02127); experiment: DHODH enzyme assay (DCIP quenching); format: biochemical; conditions: pH 8.0, DCIP absorbance 600 nm, 50 minutes; read-out: DHODH enzyme inhibition IC50
T1 construct: DHODH, 31-395aa, Human, His tag, E. coli, ATGP1615; His tag; purchased ATGen ATGP1615; host or cells: E. coli
T1 sequence (Q02127 31-395): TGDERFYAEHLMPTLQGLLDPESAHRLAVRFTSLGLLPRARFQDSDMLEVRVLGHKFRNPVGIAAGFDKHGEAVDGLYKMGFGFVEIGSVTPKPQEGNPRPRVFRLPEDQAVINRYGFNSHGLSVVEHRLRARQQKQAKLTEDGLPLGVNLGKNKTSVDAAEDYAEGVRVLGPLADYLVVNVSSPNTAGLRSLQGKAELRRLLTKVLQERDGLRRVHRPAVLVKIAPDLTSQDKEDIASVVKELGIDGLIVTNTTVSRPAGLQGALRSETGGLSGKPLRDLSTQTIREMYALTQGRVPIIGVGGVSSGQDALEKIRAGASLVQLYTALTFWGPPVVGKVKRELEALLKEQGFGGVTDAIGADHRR
Description: For DHODH enzyme assay, “Benjamin Bader, Wolfgang Knecht, Markus Fries, and Monika Löffler. Expression, Purification, and Characterization of Histidine-Tagged Rat and Human Flavoenzyme Dihydroorotate Dehydrogenase. Protein Expression and Purification, 1998, 13, 414-422” was referred to.
DHODH activity was evaluated using an enzyme assay system that couples with an assay in a blue-coloring dye 2,6-dichlorophenol indophenol (DCIP, MP BIOMEDICALS, MP150118) quenching assay. Purified recombinant human DHODH (DHODH, 31-395aa, Human, His tag, E. coli, ATGP1615) was purchased from ATGen. […] Enzyme activity was assessed by measuring the decrease in DCIP absorbance (600 nm) for 50 minutes using an Envision plate-reading spectrophotometer (PerkinElmer Co., Ltd.). […]
Enzyme reaction inhibition rate (%)=(Amount of luminescence from wells supplemented with test compound)/(Amount of luminescence from wells supplemented with DMSO)×100

[5] = MTT after 3 days, read-out: ER6 GI50
[6] = class of ER6 GI50, MTT after 3 days, read-out: Evaluation

Row | SMILES | GI50 [1, 5] [nmol/L] | GI50 [1, 6] [nmol/L] | other results
1 | O=C(O)c1cc(C2CC2)ccc1Nc1ccc2c(cnn2Cc2ccccc2)c1 [Compound 1, 2-((1-benzyl-1h-indazole-5-yl)amino)-5-cyclopropylbenzoate] | 30.6 | < 1000 | 
2 | O=C(O)c1cc(C2CC2)cnc1Nc1ccc2c(ccn2CC2CCCCC2)c1 [Compound 2, 2-((1-(cyclohexylmethyl)-1H-indole-5-yl)amino)-5-cyclopropylnicotinic acid] | 82.6 | < 1000 | 
3 | O=C(O)c1cc(C2CC2)cnc1Nc1cccc2c1ccn2-c1ccccc1 [Compound 3, 5-cyclopropyl-2-((1-phenyl-1H-indole-4-yl)amino)nicotinic acid] | 11 | < 1000 | 
4 | Cn1ccc2cc(Nc3ncc(C4CC4)cc3C(=O)O)cc(-c3ccccc3F)c21 [Compound 4, 5-cyclopropyl-2-((7-(2-fluorophenyl)-1-methyl-1H-indole-5-yl)amino)nicotinic acid] | 1.69 | < 1000 | 
5 | Cn1ccc2cc(Nc3ncc(C4CC4)cc3C(=O)O)cc(-c3ccc(C(F)(F)F)cc3)c21 [Compound 5] | < 0.14 | < 1000 | 
6 | Cn1ccc2cc(Nc3ncc(C4CC4)cc3C(=O)O)cc(-c3cccc(Cl)c3)c21 [Compound 6, 2-((7-(3-chlorophenyl)-1-methyl-1H-indole-5-yl)amino)-5-cyclopropylnicotinic acid] | 2.23 | < 1000 | 
7 | Cn1ccc2cc(Nc3ncc(C4CC4)cc3C(=O)O)cc(-c3ccc(OC(F)(F)F)cc3)c21 [Compound 7, 5-cyclopropyl-2-((1-methyl-7-(4-(trifluoromethoxy)phenyl)-1H-indole-5-yl)amino)nicotinic acid] | < 0.14 | < 1000 | 
8 | O=C(O)c1cc(C2CC2)cnc1Nc1cccc2c(-c3ccccc3)cccc12 [Compound 9, 5-cyclopropyl-2-((5-phenylnaphthalene-1-yl)amino)nicotinic acid] | 4.35 | < 1000 | 
9 | O=C(O)c1cc(C2CC2)cnc1Nc1ccc2c(-c3ccccc3)cccc2c1 [Compound 10, 5-cyclopropyl-2-((5-phenylnaphthalene-2-yl)amino)nicotinic acid] | 1.77 | < 1000 | 
10 | Cn1ccc2cc(Nc3ncc(C4CC4)cc3C(=O)O)cc(-c3ccccc3)c21 [Compound 11, 5-cyclopropyl-2-((1-methyl-7-phenyl-1H-indole-5-yl)amino)nicotinic acid] | 4.77 | < 1000 | 
11 | O=C(O)c1cc(C2CC2)cnc1Nc1ccc2c(ccn2-c2cccc(F)c2)c1 [Compound 12, 5-cyclopropyl-2-((1-(3-fluorophenyl)-1H-indole-5-yl)amino)nicotinic acid] | 23.9 | < 1000 | 
12 | O=C(O)c1cc(C2CC2)cnc1Nc1cc2ccn(Cc3ccccc3)c2cc1F [Compound 13, 2-((1-benzyl-6-fluoro-1H-indole-5-yl)amino)-5-cyclopropylnicotinic acid] | 11.4 | < 1000 | 
13 | O=C(O)c1cc(C2CC2)cnc1Nc1c(F)cc2c(ccn2Cc2ccccc2)c1F [Compound 14, 2-((1-benzyl-4,6-difluoro-1H-indole-5-yl)amino)-5-cyclopropylnicotinic acid] | 47.6 | < 1000 | 
14 | Cn1ccc2cc(Nc3ncc(C4CC4)cc3C(=O)O)cc(C3=CCOCC3)c21 [Compound 15, 5-cyclopropyl-2-((7-(3,6-dihydro-2H-pyran-4-yl)-1-methyl-1H-indole-5-yl)amino)nicotinic acid] | 25.9 | < 1000 | 
15 | O=C(O)c1cc(C2CC2)cnc1Nc1ccc2c(-c3ccccc3)nccc2c1 [Compound 16, 5-cyclopropyl-2-((1-phenylisoquinoline-6-yl)amino)nicotinic acid] | 3.19 | < 1000 | 
16 | Cn1ccc2cc(Nc3ncc(C4CC4)cc3C(=O)O)cc(-c3ccc(C#N)cc3)c21 [Compound 17, 2-((7-(4-cyanophenyl)-1-methyl-1H-indole-5-yl)amino)-5-cyclopropylnicotinic acid] | 2.96 | < 1000 | 
17 | Cn1ccc2cc(Nc3ncc(C4CC4)cc3C(=O)O)cc(-c3ccc(Cl)cc3)c21 [Compound 18, 2-((7-(4-chlorophenyl)-1-methyl-1H-indole-5-yl)amino)-5-cyclopropylnicotinic acid] | 0.62 | < 1000 | 
18 | O=C(O)c1cc(C2CC2)ccc1Nc1cccc2c1ccc(=O)n2-c1ccccc1 [Compound 19, 5-cyclopropyl-2-((2-oxo-1-phenyl-1,2-dihydroquinoline-5-yl)amino)benzoic acid] | 5.8 | < 1000 | 
19 | Cn1ccc2cc(Nc3ncc(C4CC4)cc3C(=O)O)cc(C3=CCCCC3)c21 [Compound 20] | 0.36 | < 1000 | 
20 | O=C(O)c1cc(C2CC2)cnc1Nc1ccc2c(ccn2Cc2cccc(F)c2)c1 [Compound 21, 5-cyclopropyl-2-((1-(3-fluorobenzyl)-1H-indole-5-yl)amino)nicotinic acid] |  |  | GI50 ([1]; MTT after 3 days, read-out: GI50 (nmol/L) of Glioma-initiating cell E6R): 655 nmol/L; GI50 ([1]; MTT after 3 days, read-out: GI50 class of Glioma-initiating cell E6R): < 1000 nmol/L; GI50 ([2]; read-out: GI50 (nmol/L) of Glioma-initiating cell E6): 100 nmol/L; GI50 ([2]; read-out: GI50 class of Glioma-initiating cell E6): < 1000 nmol/L; GI50 ([3]; read-out: GI50 (nmol/L) of Glioma-initiating cell E16): 11800 nmol/L; GI50 ([3]; read-out: GI50 class of Glioma-initiating cell E16): ≥ 10000 nmol/L; GI50 ([4]; read-out: GI50 (nmol/L) of Glioma-initiating cell E16R): 1960 nmol/L; GI50 ([4]; read-out: GI50 class of Glioma-initiating cell E16R): 1000 to 10000 nmol/L; IC50 (recombinant human DHODH): 0.0286 µM
